Values quoted from earlier work as cited in patent EP3463364B1, “PYRAZINE DERIVATIVES FOR USE IN THE TREATMENT OF DISEASES ASSOCIATED WITH CELL CYCLE DYSREGULATION” (University of Patras, priority 2016, dated 2017).

Molecular target: T1, Geminin-Cdtl interaction (Homo sapiens, UniProt Q9H211)
T1 sequence (Q9H211 1-546): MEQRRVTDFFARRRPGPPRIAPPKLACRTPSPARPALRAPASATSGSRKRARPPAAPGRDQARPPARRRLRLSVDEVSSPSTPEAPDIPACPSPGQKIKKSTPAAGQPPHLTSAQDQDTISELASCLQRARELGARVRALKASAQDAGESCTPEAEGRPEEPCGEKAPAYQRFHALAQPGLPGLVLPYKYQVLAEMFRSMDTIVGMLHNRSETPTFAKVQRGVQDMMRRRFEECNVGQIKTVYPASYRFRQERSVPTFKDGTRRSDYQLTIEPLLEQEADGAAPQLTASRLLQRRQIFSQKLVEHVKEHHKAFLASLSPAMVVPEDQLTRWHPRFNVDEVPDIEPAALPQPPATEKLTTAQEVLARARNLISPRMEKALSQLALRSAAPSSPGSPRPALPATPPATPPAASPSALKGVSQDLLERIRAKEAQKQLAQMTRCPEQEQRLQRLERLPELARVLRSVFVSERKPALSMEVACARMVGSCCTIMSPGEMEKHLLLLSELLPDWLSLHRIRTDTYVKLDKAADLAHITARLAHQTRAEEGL
Conditions: in vitro, through binding to the Cdtl licensing factor; literature; cited from earlier work

In the case of `COC1=C(OC)C(=O)C(C/C=C(\C)CC/C=C(\C)CC/C=C(\C)CC/C=C(\C)CC/C=C(\C)CC/C=C(\C)CC/C=C(\C)CC/C=C(\C)CC/C=C(\C)CCC=C(C)C)=C(C)C1=O` [coenzyme Q10], the “inhibition of the Geminin-Cdtl interaction” value is given as “inhibit the interaction of the two proteins in vitro”.
In the case of `CCCCCCCC/C=C\CCCCCCCC(=O)O` [oleic acid (C18:1), oleic acid], the “inhibition of the Geminin-Cdtl interaction” value is given as “inhibit the interaction of the two proteins in vitro”.
